Data on 38 molecules can be found in US8383683B2, “Pharmaceutical use of substituted amides” (High Point Pharmaceuticals, LLC, priority 2007, dated 2013).

This assay addresses 11βHSD1 (Homo sapiens, UniProt P28845). Kind of assay: 11βHSD1 enzyme assay (SPA, 3H-cortisone to 3H-cortisol). It is filed as biochemical. Further details: An extract of yeast transformed with h-11βHSD1 (Hutt et al., FEBS Lett., 441, 25 (1998)) was used as the source of enzyme; made in house. The following applies: extract of yeast transformed with h-11βHSD1; 120 nM 3H-cortisone, 4 mM β-NADPH, 60 min at 30° C. The procedure: Pharmacological Methods 11βHSD1 Enzyme Assay Materials
^3H-cortisone and anti-rabbit Ig coated scintillation proximity assay (SPA) beads were purchased from Amersham Pharmacia Biotech, β-NADPH was from Sigma and rabbit anti-cortisol antibodies were from Fitzgerald. An extract of yeast transformed with h-11βHSD1 (Hutt et al., FEBS Lett., 441, 25 (1998)) was used as the source of enzyme. The test compounds were dissolved in DMSO (10 mM). All dilutions were performed in a buffer containing 50 mM TRIS-HCl (Sigma Chemical Co), 4 mM EDTA (Sigma Chemical Co), 0.1% BSA (Sigma Chemical Co), 0.01% Tween-20 (Sigma Chemical Co) and 0.005% bacitracin (Novo Nordisk NS), pH=7.4. Optiplate 96 wells plates were supplied by Packard. The amount of ^3H-cortisol bound to the SPA beads was measured on TopCount NXT, Packard.
h-11βHSD1, 120 nM ^3H-cortisone, 4 mM β-NADPH, antibody (1:200), serial dilutions of test compound and SPA particles (2 mg/well) were added to the wells. The reaction was initiated by mixing the different components and was allowed to proceed under shaking for 60 min at 30° C. The reaction was stopped be the addition of 10 fold excess of a stopping buffer containing 500 μM carbenoxolone and 1 μM cortisone. Data was analysed using GraphPad Prism software.

Sequence of 11βHSD1 (P28845 whole entry): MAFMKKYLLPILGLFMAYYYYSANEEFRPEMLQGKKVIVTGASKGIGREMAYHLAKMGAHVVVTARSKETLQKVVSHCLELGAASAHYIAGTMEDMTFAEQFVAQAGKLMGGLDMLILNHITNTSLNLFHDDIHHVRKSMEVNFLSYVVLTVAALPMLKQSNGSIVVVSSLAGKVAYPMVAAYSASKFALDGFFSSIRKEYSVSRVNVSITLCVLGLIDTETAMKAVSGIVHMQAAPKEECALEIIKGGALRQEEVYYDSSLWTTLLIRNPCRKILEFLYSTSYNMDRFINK

`O=C(CCCOc1ccc(Cl)cc1Cl)N[C@@]12C[C@@H]3C[C@@H](C[C@@](O)(C3)C1)C2` [Example 1-1, 4-(2,4-Dichloro-phenoxy)-N-((1R,3S,5R,7S)-3-hydroxy-adamantan-1-yl)-butyramide] displayed an IC50 of 0.027 µM. Molecule `O=C(CCCOc1ccc(Cl)cc1Cl)NC(c1ccccc1)C1CC1` (centres unmarked) [Example 1-3, N-(Cyclopropyl-phenyl-methyl)-4-(2,4-dichloro-phenoxy)-butyramide] returned an IC50 of 0.405 µM. The same measure for `O=C(CCCOc1ccc(Cl)cc1Cl)N1CCCCC1c1ccccc1Cl` (centres unmarked) [Example 1-4, 1-[2-(2-Chloro-phenyl)-piperidin-1-yl]-4-(2,4-dichloro-phenoxy)-butan-1-one]: 0.296 µM; for `O=C(CCCOc1ccc(Cl)cc1Cl)N1CCCCC1c1ccccc1` (centres unmarked) [Example 1-10, 4-(2,4-Dichloro-phenoxy)-1-(2-phenyl-piperidin-1-yl)-butan-1-one]: 0.201 µM; for `CC1(C)[C@H]2CC[C@@H](CNC(=O)CCCOc3ccc(Cl)cc3Cl)[C@@H]1C2` [Example 1-11, 4-(2,4-Dichloro-phen-oxy)-N-((1S,2R,5S)-6,6-dimethyl-bicyclo[3.1.1]-hept-2-ylmethyl)-butyr-amide]: 0.271 µM. With `O=C(CCCOc1ccc(Cl)cc1Cl)N1CC2CCC(CC2)C1` [Example 1-15, 1-(3-Aza-bicyclo[3.2.2]-non-3-yl)-4-(2,4-di-chloro-phenoxy)-butan-1-one], 0.052 µM corresponded to half-maximal inhibition (IC50). The value for `COC(=O)C1CC2CCC(C1)N2C(=O)CCCOc1ccc(Cl)cc1Cl` (centres unmarked) [Example 1-17, 8-[4-(2,4-Dichloro-phenoxy)-butyryl]-8-aza-bicyclo[3.2.1]octane-3-carboxylic acid methyl ester] was 0.007 µM; that for `O=C(CCCOc1ccc(Cl)cc1Cl)N(C1CC1)C1C2CC3CC1CC(O)(C3)C2` (centres unmarked) [Example 1-18, N-Cyclopropyl-4-(2,4-dichloro-phenoxy)-N-(5-hydroxy-adamantan-2-yl)-butyramide] was 0.209 µM; that for `O=C(CCCOc1ccc(Cl)cc1Cl)N(C1CC1)C1C2CC3CC1CC(O)(C3)C2` (centres unmarked) [Example 1-19, N-Cyclopropyl-4-(2,4-dichloro-phenoxy)-N-(5-hydroxy-adamantan-2-yl)-butyramide] was 0.024 µM. Molecule `O=C(CCCOc1ccc(Cl)cc1Cl)NC12CC3CC(C1)CC(C(=O)O)(C3)C2` [Example 1-20, 3-[4-(2,4-Dichloro-phenoxy)-butyrylamino]-adamantane-1-carboxylic acid] had an IC50 of 0.013 µM. The same measure for `O=C(CCCOc1ccc(Cl)cc1Cl)NC1C2CC3CC(C2)C(CO)C1C3` (centres unmarked) [Example 1-21, 4-(2,4-Dichloro-phenoxy)-N-(4-hydroxy-methyl-adamantan-2-yl)-butyramide]: 0.001 µM; for `O=C(CCCOc1ccc(Cl)cc1Cl)N1CC2CC3CC1CC(O)(C3)C2` (centres unmarked) [Example 1-22, 4-(2,4-Dichloro-phenoxy)-1-(1-hydroxy-4-aza-tricyclo-[4.3.1.1{3,8}]undec-4-yl)-butan-1-one]: 0.006 µM.

In turn, `O=C(CCCOc1ccc(Cl)cc1Cl)N1CC2CC(O)C1C2` (centres unmarked) [Example 1-23, 4-(2,4-Dichloro-phenoxy)-1-(6-hydroxy-2-aza-bicyclo[2.2.1]hept-2-yl)-butan-1-one] registered an IC50 of 0.151 µM.

The molecule `O=C(CCCOc1ccc(Cl)cc1Cl)N1CC2CC1CC2O` (centres unmarked) [Example 1-24, 4-(2,4-Dichloro-phenoxy)-1-(5-hydroxy-2-aza-bicyclo[2.2.1]hept-2-yl)-butan-1-one] showed an IC50 of 0.02 µM. Take `O=C(CCCOc1ccc(Cl)cc1Cl)N1CC2CC(O)CC1C2` (centres unmarked) [Example 1-25, 4-(2,4-Dichloro-phenoxy)-1-(3-hydroxy-6-aza-bicyclo[3.2.1]oct-6-yl)-butan-1-one]: the IC50 came to 0.185 µM. The value for `CN(C(=O)CCCOc1ccc(Cl)cc1Cl)C1CCC(O)CC1` (centres unmarked) [Example 1-26, 4-(2,4-Dichloro-phenoxy)-N-(4-hydroxy-cyclohexyl)-N-methyl-butyramide] was 0.021 µM; that for `O=C(CCCOc1ccc(Cl)cc1Cl)NC1C2CC3CC1CC(O)(C3)C2` (centres unmarked) [Example 1-27, 4-(2,4-Dichloro-phenoxy)-N-(5-hydroxy-adamantan-2-yl)-butyramide] was 0.004 µM; that for `O=C(CCCOc1ccc(Cl)cc1Cl)NC12CC3CC(CC(CO)(C3)C1)C2` [Example 1-28, 4-(2,4-Dichloro-phenoxy)-N-(3-hydroxy-methyl-adamantan-1-yl)-butyramide] was 0.001 µM. In turn, `O=C(CCCOc1ccc(Cl)cc1Cl)N1CC2CCC1C2O` (centres unmarked) [Example 1-29, 4-(2,4-Dichloro-phenoxy)-1-(7-hydroxy-2-aza-bicyclo[2.2.1]hept-2-yl)-butan-1-one] gave an IC50 of 0.014 µM. `COC(=O)C12CC3CC(CC(NC(=O)CCCOc4ccc(Cl)cc4Cl)(C3)C1)C2` [Example 1-30, 3-[4-(2,4-Dichloro-phenoxy)-butyrylamino]-adamantane-1-carboxylic acid methyl ester] yielded an IC50 of 0.01 µM. As to `O=C(CCCOc1ccc(Cl)cc1Cl)NC12CC3CC(C1)CC(C(=O)O)(C3)C2` [Example 1-31, 3-[4-(2,4-Dichloro-phenoxy)-butyrylamino]-adamantane-1-carboxylic acid], half-maximal inhibition (IC50) was put at 0.011 µM. The same measure for `CN(C(=O)CCCOc1ccc(Cl)cc1Cl)C1C2CC3CC1CC(O)(C3)C2` (centres unmarked) [Example 1-32, 4-(2,4-Dichloro-phenoxy)-N-(5-hydroxy-adamantan-2-yl)-N-methyl-butyramide]: 0.004 µM; for `CCN(C(=O)CCCOc1ccc(Cl)cc1Cl)C1C2CC3CC1CC(O)(C3)C2` (centres unmarked) [Example 1-33, 4-(2,4-Dichloro-phenoxy)-N-ethyl-N-(5-hydroxy-adamantan-2-yl)-butyramide]: 0.007 µM; for `CCN(C(=O)CCCOc1ccc(Cl)cc1Cl)C1C2CC3CC1CC(O)(C3)C2` (centres unmarked) [Example 1-34, 4-(2,4-Dichloro-phenoxy)-N-ethyl-N-(5-hydroxy-adamantan-2-yl)-butyramide]: 0.172 µM. The same measure for `O=C(CCCOc1ccc(Cl)cc1Cl)N1CC2CCC(C1)C2O` (centres unmarked) [Example 1-35, 4-(2,4-Dichloro-phenoxy)-1-(8-hydroxy-3-aza-bicyclo[3.2.1]oct-3-yl)-butan-1-one]: 0.252 µM. Take `O=C(CCCOc1ccc(Cl)cc1Cl)N1CC2CCC1CC2O` (centres unmarked) [Example 1-36, 4-(2,4-Dichloro-phenoxy)-1-(5-hydroxy-2-aza-bicyclo[2.2.2]oct-2-yl)-butan-1-one]: the IC50 amounted to 0.397 µM. The same measure for `CN(C(=O)CCCOc1ccccc1)C1CCC(O)CC1` (centres unmarked) [Example 1-37, N-(4-Hydroxy-cyclohexyl)-N-methyl-4-phenoxy-butyramide]: 1.82 µM; for `O=C(CCCOc1ccccc1)NC1C2CC3CC1CC(O)(C3)C2` (centres unmarked) [Example 1-39, N-(5-Hydroxy-adamantan-2-yl)-4-phenoxy-butyramide]: 0.05 µM. Consider `CN(C(=O)CCCOc1ccccc1)C1C2CC3CC1CC(O)(C3)C2` (centres unmarked) [Example 1-42, N-(5-Hydroxy-adamantan-2-yl)-N-methyl-4-phenoxy-butyramide], for which inhibition was half-maximal at 1.34 µM (IC50). In turn, `CN(C(=O)CCCOc1ccccc1)C1C2CC3CC1CC(O)(C3)C2` (centres unmarked) [Example 1-43, N-(5-Hydroxy-adamantan-2-yl)-N-methyl-4-phenoxy-butyramide] yielded an IC50 of 0.058 µM.

For `O=C(CCCOc1ccccc1)NC12CC3CC(CC(CO)(C3)C1)C2` [Example 1-45, N-(3-Hydroxymethyl-adamantan-1-yl)-4-phenoxy-butyramide], the IC50 turned out to be 0.009 µM. For the molecule `O=C(CCCOc1ccccc1)N1CC2CC1CC2O` (centres unmarked) [Example 1-46, 1-(5-Hydroxy-2-aza-bicyclo[2.2.1]hept-2-yl)-4-phenoxy-butan-1-one], half-maximal inhibition (IC50) required 1.51 µM.

In turn, `O=C(CCCOc1ccccc1)N1CC2CCC1C2O` (centres unmarked) [Example 1-48, 1-(7-Hydroxy-2-aza-bicyclo[2.2.1]hept-2-yl)-4-phenoxy-butan-1-one] registered an IC50 of 1.08 µM. `CC(C)N(C(=O)CCCOc1ccccc1)C1C2CC3CC1CC(O)(C3)C2` (centres unmarked) [Example 1-49, N-(5-Hydroxy-adamantan-2-yl)-N-isopropyl-4-phenoxy-butyramide] came in with an IC50 of 0.141 µM.

With `CCN(C(=O)CCCOc1ccccc1)C1C2CC3CC1CC(O)(C3)C2` (centres unmarked) [Example 1-51, N-Ethyl-N-(5-hydroxy-adamantan-2-yl)-4-phenoxy-butyramide], the IC50 amounted to 0.061 µM. The value for `COC(=O)C12CC3CC(CC(NC(=O)CCCOc4ccccc4)(C3)C1)C2` [Example 1-52, 3-(4-Phenoxy-butyryl-amino)-adamantane-1-carboxylic acid methyl ester] was 0.054 µM. The same measure for `O=C(CCCOc1ccccc1)NC12CC3CC(C1)CC(C(=O)O)(C3)C2` [Example 1-53, 3-(4-Phenoxy-butyryl-amino)-adamantane-1-carboxylic acid]: 0.194 µM; for `O=C(CCCOc1ccccc1)NC1C2CC3CC1CC(CO)(C3)C2` (centres unmarked) [Example 1-54, N-(5-Hydroxymethyl-adamantan-2-yl)-4-phenoxy-butyramide]: 0.01 µM.
